This assay addresses SHP2 (Homo sapiens (Human), UniProt Q06124). The experiment in a line: SHP2 Allosteric Inhibition Assay (DiFMUP prompt fluorescence). The note with it: 0.5 nM SHP2 activated with 0.5 μM peptide IRS1_pY1172(dPEG8)pY1222, substrate DiFMUP. In kind it is biochemical. The source says:
SHP2 Allosteric Inhibition Assay
SHP2 is allosterically activated through binding of bis-tyrosyl-phosphorylated peptides to its Src Homology 2 (SH2) domains.
Chain of SHP2 (Q06124 whole entry): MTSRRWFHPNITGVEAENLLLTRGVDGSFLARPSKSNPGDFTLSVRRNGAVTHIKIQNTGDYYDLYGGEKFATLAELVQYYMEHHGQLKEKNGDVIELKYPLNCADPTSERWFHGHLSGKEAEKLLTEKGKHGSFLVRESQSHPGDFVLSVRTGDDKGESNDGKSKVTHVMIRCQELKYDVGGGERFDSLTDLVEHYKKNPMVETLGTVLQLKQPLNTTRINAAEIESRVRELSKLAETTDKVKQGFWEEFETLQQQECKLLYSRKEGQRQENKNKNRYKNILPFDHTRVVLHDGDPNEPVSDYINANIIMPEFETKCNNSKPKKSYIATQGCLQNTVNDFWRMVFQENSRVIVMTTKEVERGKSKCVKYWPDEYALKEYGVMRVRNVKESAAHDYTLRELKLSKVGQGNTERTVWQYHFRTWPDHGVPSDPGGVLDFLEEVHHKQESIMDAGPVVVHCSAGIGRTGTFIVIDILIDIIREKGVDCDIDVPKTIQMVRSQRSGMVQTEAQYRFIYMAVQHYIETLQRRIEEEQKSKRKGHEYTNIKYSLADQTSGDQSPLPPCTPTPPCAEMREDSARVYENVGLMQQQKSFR
The term IC50 denotes the concentration needed to halve the response being measured. A low value points to inhibition by little substance. `Nc1nc(N2CC3C(N)C3C2)cnc1-c1cccc(Cl)c1Cl` (stereo not shown) [Example 13] gave an IC50 of 65 nM.
Then `Nc1nc(N2CCC3NCCC3C2)cnc1-c1cccc(Cl)c1Cl` (stereo not shown) [Example 10], with 908 nM; and `CCCC1(CN)CCN(c2cnc(-c3cccc(Cl)c3Cl)c(N)n2)CC1` [Example 15], with 75 nM; and `NCC1(c2cnccn2)CCN(c2cnc(-c3cccc(Cl)c3Cl)c(N)n2)CC1` [Example 18], with 93 nM.
Under `NCC1(c2ccccn2)CCN(c2cnc(-c3cccc(Cl)c3Cl)c(N)n2)CC1` [Example 19] stands 110 nM.
With `NCC1(c2ccncc2)CCN(c2cnc(-c3cccc(Cl)c3Cl)c(N)n2)CC1` [Example 17], the IC50 was found to be 102 nM. This IC50 and that of the molecule before are within 1.5-fold of each other.
In turn, `NCC1(c2ccccc2)CCN(c2cnc(-c3cccc(Cl)c3Cl)c(N)n2)CC1` [Example 12] displayed a half-maximal inhibitory concentration (IC50) of 65 nM.
Under `C[C@]1(N)CCN(c2cnc(-c3cccc(Cl)c3Cl)c(N)n2)C[C@@H]1O` [Example 16] stands 93 nM.
Molecule `Nc1nc(N2CC3CNCC32)cnc1-c1cccc(Cl)c1Cl` (stereo not shown) [Example 20] returned an IC50 of 404 nM.
Molecule `Nc1nc(N2CC3CNCC3C2)cnc1-c1cccc(Cl)c1Cl` (stereo not shown) [Example 21] gave an IC50 of 102 nM.

The record behind these values is patent publication US10093646B2, “1-pyridazin-/triazin-3-yl-piper(-azine)/idine/pyrolidine derivatives and compositions thereof for inhibiting the activity of SHP2” (Novartis AG, priority 2014, dated 2018).
